Data as given in patent EP4778531A1, “MUSCLE RELAXANT ANTAGONIST FOR REVERSAL FOR BENZYLISOQUINOLINE MUSCLE RELAXANT” (priority 2023, dated 2025).

Tests used:
[1] = system: cisatracurium-induced guinea pig muscle relaxation model; test: Antagonism of residual muscle relaxation after cisatracurium in anesthetized guinea pigs (TOF monitoring); assay type: in vivo, Hartley guinea pigs; conditions: for Residual Muscle Relaxation Recovery Time tTOF0-50: spontaneous recovery before administration; for Degree of tTOF50-90 shortening: vs negative control group
Procedure: (§1) Ninety (90) qualified Hartley guinea pigs, male, were used. Sixty (60) animals were randomly divided into 6 experimental groups based on body weight using a stratified random method: negative control group, positive control group, low-dose test group, medium-dose test group, high-dose test group, and combination group, with 10 animals per group (n=10). The remaining animals served as spares. The negative control group received 0.9% sodium chloride. The positive control group received 0.0625 mg/kg neostigmine methylsulfate (referred to as neostigmine). The low-dose test group received 10 mg/kg adamgammadex sodium. The medium-dose test group received 20 mg/kg adamgammadex sodium. The high-dose test group received 40 mg/kg adamgammadex sodium. The combination group received 10 mg/kg adamgammadex sodium and 0.03125 mg/kg neostigmine. The administration volume for all groups was 1 mL/kg.
(§2) Adaptive feeding was conducted after the quarantine period. On the day of the experiment, guinea pigs were weighed, administered atropine (0.1 mg/kg) intramuscularly, and then anesthetized with an intraperitoneal injection of anesthetic (pentobarbital sodium 10 mg/kg, urethane 1000 mg/kg). After fixation, the animals were intubated and connected to a small animal ventilator. Both external jugular veins and the right carotid artery were cannulated. The left jugular vein was used for cisatracurium infusion, the right jugular vein for injection of different test substances, and the carotid artery was connected to a multi-channel physiological signal acquisition and processing system for continuous monitoring of arterial blood pressure and heart rate. Electrode patches were subcutaneously placed behind the left femur and tibia of the guinea pig, and two stimulating electrodes of the neuromuscular monitor were fixed to the two electrode patches. The left hind paw was fixed on a custom-made platform. A sensor was fixed to the skin surface over the gastrocnemius muscle of the left hind limb, and a skin temperature probe was fixed to a flat area of skin. Continuous single-twitch stimulation was applied at 1 Hz. After the twitch height stabilized, the mode was switched to train-of-four stimulation (TOF mode, stimulus current 5 mA, frequency 2 Hz, pulse width 0.2 ms, interval between trains 15 s) for at least 5 min. Calibration was then performed using Calibration Mode 2, followed by TOF mode stimulation. After obtaining a stable stimulation response for at least 2 min, cisatracurium solution was infused intravenously using a dual-channel micro-infusion pump, and the start time of infusion was recorded. […] At this point, cisatracurium infusion was stopped. After stopping the infusion, neuromuscular function was allowed to recover spontaneously. When neuromuscular function reached moderate recovery, the test drug formulation was administered intravenously. Neuromuscular function was allowed to recover completely, and the administration time was recorded (Figure 1). Using the time of spontaneous recovery to moderate neuromuscular function (TOF50) as zero point, the times for recovery from TOF50 to TOF75, TOF75 to TOF90, and TOF50 to TOF90 were calculated for each animal (Table 1-2). Arterial blood pressure (systolic, diastolic, mean arterial pressure) and heart rate were recorded before cisatracurium infusion, at the time cisatracurium infusion was stopped, at the time of moderate neuromuscular recovery, and at the time of complete neuromuscular function recovery (Tables 3-7). Data were expressed as Mean ± SD. Statistical T-tests were performed using SPSS software to evaluate differences in blood pressure, heart rate, and residual neuromuscular blockade recovery times. P < 0.05 was considered statistically significant.

[2] = system: cisatracurium-induced guinea pig muscle relaxation model; test: Arterial blood pressure and heart rate in the cisatracurium muscle relaxation model; assay type: in vivo, Hartley guinea pigs
Procedure: as §1, §2

[3] = high-dose test group, 40 mg/kg i.v.
[4] = low-dose test group, 10 mg/kg i.v.
[5] = medium-dose test group, 20 mg/kg i.v.

Adamgammadex sodium [Compound 1]
Residual Muscle Relaxation Recovery Time Ratios RtTOF50-75/0-50 [1, 3]: 0.10±0.11
Residual Muscle Relaxation Recovery Time Ratios RtTOF50-90/0-50 [1, 3]: 0.16±0.11
Residual Muscle Relaxation Recovery Time Ratios RtTOF75-90/0-50 [1, 3]: 0.06±0.06
Residual Muscle Relaxation Recovery Time tTOF50-75 [1, 3]: 131 ± 144 s
Residual Muscle Relaxation Recovery Time tTOF50-90 [1, 3]: 201 ± 131 s
Residual Muscle Relaxation Recovery Time tTOF75-90 [1, 3]: 71 ± 52 s
Residual Muscle Relaxation Recovery Time tTOF0-50 [1, 3]: 1413 ± 693 s
Degree of tTOF50-90 shortening [1, 3]: 55.8%
Residual Muscle Relaxation Recovery Time Ratios RtTOF50-75/0-50 [1, 4]: 0.14±0.10
Residual Muscle Relaxation Recovery Time Ratios RtTOF50-90/0-50 [1, 4]: 0.23±0.13
Residual Muscle Relaxation Recovery Time Ratios RtTOF75-90/0-50 [1, 4]: 0.09±0.05
Residual Muscle Relaxation Recovery Time tTOF50-75 [1, 4]: 143 ± 85 s
Residual Muscle Relaxation Recovery Time tTOF50-90 [1, 4]: 248 ± 139 s
Residual Muscle Relaxation Recovery Time tTOF75-90 [1, 4]: 105 ± 78 s
Residual Muscle Relaxation Recovery Time tTOF0-50 [1, 4]: 1093 ± 427 s
Degree of tTOF50-90 shortening [1, 4]: 45.5%
Residual Muscle Relaxation Recovery Time Ratios RtTOF50-75/0-50 [1, 5]: 0.12±0.05
Residual Muscle Relaxation Recovery Time Ratios RtTOF50-90/0-50 [1, 5]: 0.22±0.08
Residual Muscle Relaxation Recovery Time Ratios RtTOF75-90/0-50 [1, 5]: 0.09±0.07
Residual Muscle Relaxation Recovery Time tTOF50-75 [1, 5]: 159 ± 72 s
Residual Muscle Relaxation Recovery Time tTOF50-90 [1, 5]: 279 ± 123 s
Residual Muscle Relaxation Recovery Time tTOF75-90 [1, 5]: 120 ± 99 s
Residual Muscle Relaxation Recovery Time tTOF0-50 [1, 5]: 1349 ± 381 s
Degree of tTOF50-90 shortening [1, 5]: 38.7%
effect on animal blood pressure or heart rate (in words) ([2]; 10, 20, and 40 mg/kg): no effect on animal blood pressure or heart rate
Heart rate Administration [2, 3]: 258+18 bmp
Heart rate Complete Recovery [2, 3]: 258+16 bmp
Heart rate Moderate Recovery [2, 3]: 257+18 bmp
Heart rate Muscle Relaxation End [2, 3]: 249±21 bmp
Heart rate Muscle Relaxation Start [2, 3]: 243+27 bmp
Mean Arterial Pressure mAP Administration [2, 3]: 70±8 mmHg
Mean Arterial Pressure mAP Complete Recovery [2, 3]: 73+10 mmHg
Mean Arterial Pressure mAP Moderate Recovery [2, 3]: 72+8 mmHg
Mean Arterial Pressure mAP Muscle Relaxation End [2, 3]: 65+10 mmHg
Mean Arterial Pressure mAP Muscle Relaxation Start [2, 3]: 64+12 mmHg
Mean Diastolic Pressure mDP Administration [2, 3]: 60+7 mmHg
Mean Diastolic Pressure mDP Complete Recovery [2, 3]: 63±9 mmHg
Mean Diastolic Pressure mDP Moderate Recovery [2, 3]: 62±8 mmHg
Mean Diastolic Pressure mDP Muscle Relaxation End [2, 3]: 56+9 mmHg
Mean Diastolic Pressure mDP Muscle Relaxation Start [2, 3]: 56+12 mmHg
Mean Pulse Pressure Administration [2, 3]: 21±5 mmHg
Mean Pulse Pressure Complete Recovery [2, 3]: 21+5 mmHg
Mean Pulse Pressure Moderate Recovery [2, 3]: 21+4 mmHg
Mean Pulse Pressure Muscle Relaxation End [2, 3]: 19±5 mmHg
Mean Pulse Pressure Muscle Relaxation Start [2, 3]: 18+4 mmHg
Mean Systolic Pressure mSP Administration [2, 3]: 81±10 mmHg
Mean Systolic Pressure mSP Complete Recovery [2, 3]: 84±11 mmHg
Mean Systolic Pressure mSP Moderate Recovery [2, 3]: 83±9 mmHg
Mean Systolic Pressure mSP Muscle Relaxation End [2, 3]: 75±11 mmHg
Mean Systolic Pressure mSP Muscle Relaxation Start [2, 3]: 74±12 mmHg
Heart rate Administration [2, 4]: 269+20 bmp
Heart rate Complete Recovery [2, 4]: 270+18 bmp
Heart rate Moderate Recovery [2, 4]: 268+20 bmp
Heart rate Muscle Relaxation End [2, 4]: 261+20 bmp
Heart rate Muscle Relaxation Start [2, 4]: 259+30 bmp
Mean Arterial Pressure mAP Administration [2, 4]: 75+15 mmHg
Mean Arterial Pressure mAP Complete Recovery [2, 4]: 76+13 mmHg
Mean Arterial Pressure mAP Moderate Recovery [2, 4]: 74+10 mmHg
Mean Arterial Pressure mAP Muscle Relaxation End [2, 4]: 70+11 mmHg
Mean Arterial Pressure mAP Muscle Relaxation Start [2, 4]: 70±16 mmHg
Mean Diastolic Pressure mDP Administration [2, 4]: 67+13 mmHg
Mean Diastolic Pressure mDP Complete Recovery [2, 4]: 68+11 mmHg
Mean Diastolic Pressure mDP Moderate Recovery [2, 4]: 65+8 mmHg
Mean Diastolic Pressure mDP Muscle Relaxation End [2, 4]: 62+9 mmHg
Mean Diastolic Pressure mDP Muscle Relaxation Start [2, 4]: 61+14 mmHg
Mean Pulse Pressure Administration [2, 4]: 19+6 mmHg
Mean Pulse Pressure Complete Recovery [2, 4]: 18+6 mmHg
Mean Pulse Pressure Moderate Recovery [2, 4]: 18±5 mmHg
Mean Pulse Pressure Muscle Relaxation End [2, 4]: 17+4 mmHg
Mean Pulse Pressure Muscle Relaxation Start [2, 4]: 18±5 mmHg
Mean Systolic Pressure mSP Administration [2, 4]: 85±18 mmHg
Mean Systolic Pressure mSP Complete Recovery [2, 4]: 86±16 mmHg
Mean Systolic Pressure mSP Moderate Recovery [2, 4]: 83±12 mmHg
Mean Systolic Pressure mSP Muscle Relaxation End [2, 4]: 79±12 mmHg
Mean Systolic Pressure mSP Muscle Relaxation Start [2, 4]: 79±18 mmHg
Heart rate Administration [2, 5]: 259+38 bmp
Heart rate Complete Recovery [2, 5]: 263+36 bmp
Heart rate Moderate Recovery [2, 5]: 261+35 bmp
Heart rate Muscle Relaxation End [2, 5]: 247+42 bmp
Heart rate Muscle Relaxation Start [2, 5]: 242+43 bmp
Mean Arterial Pressure mAP Administration [2, 5]: 70+8 mmHg
Mean Arterial Pressure mAP Complete Recovery [2, 5]: 73+6 mmHg
Mean Arterial Pressure mAP Moderate Recovery [2, 5]: 74+7 mmHg
Mean Arterial Pressure mAP Muscle Relaxation End [2, 5]: 65+10 mmHg
Mean Arterial Pressure mAP Muscle Relaxation Start [2, 5]: 64±8 mmHg
Mean Diastolic Pressure mDP Administration [2, 5]: 61+8 mmHg
Mean Diastolic Pressure mDP Complete Recovery [2, 5]: 64+6 mmHg
Mean Diastolic Pressure mDP Moderate Recovery [2, 5]: 64+6 mmHg
Mean Diastolic Pressure mDP Muscle Relaxation End [2, 5]: 57+9 mmHg
Mean Diastolic Pressure mDP Muscle Relaxation Start [2, 5]: 56+8 mmHg
Mean Pulse Pressure Administration [2, 5]: 19±3 mmHg
Mean Pulse Pressure Complete Recovery [2, 5]: 20+4 mmHg
Mean Pulse Pressure Moderate Recovery [2, 5]: 20+3 mmHg
Mean Pulse Pressure Muscle Relaxation End [2, 5]: 18±3 mmHg
Mean Pulse Pressure Muscle Relaxation Start [2, 5]: 18±3 mmHg
Mean Systolic Pressure mSP Administration [2, 5]: 80±8 mmHg
Mean Systolic Pressure mSP Complete Recovery [2, 5]: 84±7 mmHg
Mean Systolic Pressure mSP Moderate Recovery [2, 5]: 84±7 mmHg
Mean Systolic Pressure mSP Muscle Relaxation End [2, 5]: 75±10 mmHg
Mean Systolic Pressure mSP Muscle Relaxation Start [2, 5]: 74±9 mmHg
